Data on six compounds can be found in ChEMBL document CHEMBL3792325, “Two novel phenanthraquinones with anti-cancer activity isolated from Bletilla striata” (Bioorg Med Chem Lett, 2016).

One experiment deals with MCF7. As to the kind of experiment: Antiproliferative activity against human MCF7 cells assessed as growth inhibition after 48 hrs by MTT assay. The class given is functional, cell-based. The settings on record: MCF7, 48 h. A general note: Tetrazolium dyes change colour on reduction, which living cells bring about.
The subject of the next experiment is HT-29. As to the kind of experiment: Antiproliferative activity against human HT-29 cells assessed as growth inhibition after 48 hrs by MTT assay. The class given is functional, cell-based. The settings on record: HT-29, 48 h.
For the next experiment, the system named is HUVEC. Put plainly: Antiproliferative activity against human HUVEC cells assessed as growth inhibition after 48 hrs by MTT assay. The class given is cell-based.
The subject of experiment [1] is A549. Put plainly: Antiproliferative activity against human A549 cells assessed as growth inhibition after 48 hrs by MTT assay. The class given is functional, cell-based. The settings on record: A549, 48 h.
The subject of experiment [2] is A549. As to the kind of experiment: Effect on cell cycle distribution in human A549 cells assessed as accumulation at G1 phase at 20 ug/ml after 24 hrs by propidium iodide staining based flow cytometry method (reference value: 53.24%). It counts as functional. (Flow cytometry measures light scatter and fluorescence of single cells or particles in a stream.)
The subject of experiment [3] is A549. Put plainly: Effect on cell cycle distribution in human A549 cells assessed as accumulation at G2 phase at 20 ug/ml after 24 hrs by propidium iodide staining based flow cytometry method (reference value: 8%). It counts as functional.
The test system of experiment [4] is A549. Put plainly: Effect on cell cycle distribution in human A549 cells assessed as accumulation at S phase at 20 ug/ml after 24 hrs by propidium iodide staining based flow cytometry method (reference value: 38.76%). It counts as functional.
The test system of experiment [5] is A549. Put plainly: Effect on cell cycle distribution in human A549 cells assessed as accumulation at […] phase at 20 ug/ml after 24 hrs by propidium iodide staining based flow cytometry method (reference value: 1.96%). The class given is functional.
Experiment [6] deals with A549. Put plainly: Induction of ROS generation in human A549 cells at 20 ug/ml after 24 hrs by FACS-flow cytometry method (reference value: 20.51). It counts as functional.
Experiment [7] deals with A549. As to the kind of experiment: Induction of ROS generation in human A549 cells assessed as fold change at 20 ug/ml after 24 hrs by FACS-flow cytometry method relative to control. The class given is functional.

Converted amounts (≈) assume the structure as drawn.

The term IC50 denotes the point on the concentration scale where inhibition reaches its midpoint.

Consider `COc1cc2ccc3c(OC)c(O)ccc3c2c(OC)c1O`, for which the half-maximal inhibitory concentration (IC50) in the experiment with MCF7, in the experiment on HT-29, in the experiment on HUVEC and in the experiment with A549 [1] was more than 100 µg/mL each time.
`COc1cc(O)c2c(c1)C(=O)c1cc(C)cc(O)c1C2=O` [PHYSCION]: the IC50 with MCF7, with HT-29, in the experiment with HUVEC and with A549 [1] was more than 100 µg/mL throughout.
`Cc1ccc2c(c1)C(=O)c1ccccc1C2=O` [TECTOQUINONE]: the IC50 with MCF7, in the experiment on HT-29, in the experiment with HUVEC and with A549 [1] was more than 100 µg/mL each time.
On to `COC1=C(c2c(O)ccc3c2ccc2cc(OC)c(O)c(OC)c23)c2ccc3cc(O)ccc3c2C(=O)C1=O`, for which the half-inhibitory concentration (IC50) in the experiment on MCF7 turned out to be 12.6 µg/mL (≈ 24.2 µM); in the experiment with HT-29, 22.7 µg/mL (≈ 43.4 µM); in the experiment with HUVEC it was 33.5 µg/mL (≈ 64.1 µM); with A549 [1] it was 22.6 µg/mL (≈ 43.3 µM). The Activity stood at 69.4% in the experiment on A549 [2], 8% in the experiment on A549 [3], 22.6% in the experiment on A549 [4] and 1.95% in the experiment with A549 [5]. Besides, in the experiment on A549 [6], the Flu intensity is 256.68. In the experiment on A549 [7], the “fold change (FC)” value is on record as 10.
In the case of `COC1=Cc2ccc3cc(O)ccc3c2C(=O)C1=O`, the concentration for half-maximal inhibition (IC50) in the experiment with MCF7 amounted to 18.5 µg/mL (≈ 72.7 µM); with HT-29, 25 µg/mL (≈ 98.4 µM); with HUVEC, 48.3 µg/mL (≈ 190 µM); with A549 [1] it was 19.7 µg/mL (≈ 77.6 µM). Also, the Activity with A549 [2] is on record as 63.22%; in the experiment with A549 [3], 6.47%; in the experiment with A549 [4] it was 30.31%; with A549 [5] it was 2%. For the same compound, in the experiment on A549 [6], the Flu intensity is recorded as 136. Also, the “fold change (FC)” value in the experiment on A549 [7] is recorded as 6.
`COc1cc(C(=O)O)ccc1O` [VANILLIC ACID]: the IC50 in the experiment with MCF7, in the experiment on HT-29, with HUVEC and in the experiment with A549 [1] was more than 100 µg/mL in each case.
